What all share (type): biochemical
Test [1] has as its target T1, human JAK1 (a.a. 837-1142) (Homo sapiens, UniProt P23458).
T1 construct: human JAK1 (a.a. 837-1142); His tag (N); made in house; host or cells: insect cells (baculovirus)
Description: In vitro JAK kinase assay (HTRF, phosphorylation of a biotinylated peptide), JAK1. Particulars: read-out: JAK1 IC50. The method, boiled down:
(§1)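 Phosphorylation of a biotinylated peptide by the JAK kinase domain, detected by HTRF with Eu-Py20 and SA-APC. ATP was 90 μM for JAK1, 30 μM for JAK2 and 3 μM for JAK3. Reactions ran 1 h at room temperature and were stopped with EDTA, followed by 40 min antibody binding.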

Test [2] has as its target T2, Recombinant Human Anaplastic Lymphoma Kinase (Homo sapiens, UniProt Q9UM73).
T2 construct: purchased Invitrogen, Carlsbad, Calif
Briefly: ALK HTRF kinase assay. The method, boiled down:
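Readout was HTRF between a Eu-W1024 anti-phosphotyrosine antibody and streptavidin-APC bound to biotinylated peptide phosphorylated by recombinant human ALK. IC50 values came from a four-parameter logistic fit.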
On the technique in general: In TR-FRET formats the signal depends on donor and acceptor labels being close together.

Test [3] deals with T3, human JAK3 (a.a. 781-1124) (Homo sapiens, UniProt P52333).
T3 construct: JAK3 (a.a. 781-1124); His tag (N); made in house; host or cells: insect cells (baculovirus)
Briefly: In vitro JAK kinase assay (HTRF, phosphorylation of a biotinylated peptide), JAK3. The method, boiled down:
as §1

Test [4] deals with T4, human JAK2 (a.a. 828-1132) (Homo sapiens, UniProt O60674).
T4 construct: JAK2 (a.a. 828-1132); His tag (N); made in house; host or cells: insect cells (baculovirus)
Description: In vitro JAK kinase assay (HTRF, phosphorylation of a biotinylated peptide), JAK2. The method in brief: as §1

In another test the target is TYK2 (Homo sapiens, UniProt P29597). Description: TYK2 kinase inhibition (Table A1).
The mark [5] stands for this setting: compound at a concentration of 500 nM or 1 mM (not specified), cells shown as percentage.
[6] abbreviates: Table B1, cells without percent sign.
Setting [7] is: method AA1 (90 μM ATP) or AA2 (1000 μM ATP), not stated per value.
[8] abbreviates: compound at 500 nM or 1 mM, 90 μM ATP.
[9] abbreviates: method AA1 (3 μM ATP) or AA2 (1000 μM ATP), not stated per value.
Setting [10] is: method AA1 (30 μM ATP) or AA2 (1000 μM ATP), not stated per value.

Structures can show the parent of a compound that is named as a salt. Where two headings read alike, the source gives them in different places.

The term IC50 denotes the concentration at which inhibition is half-maximal.

T4 sequence (O60674 828-1132): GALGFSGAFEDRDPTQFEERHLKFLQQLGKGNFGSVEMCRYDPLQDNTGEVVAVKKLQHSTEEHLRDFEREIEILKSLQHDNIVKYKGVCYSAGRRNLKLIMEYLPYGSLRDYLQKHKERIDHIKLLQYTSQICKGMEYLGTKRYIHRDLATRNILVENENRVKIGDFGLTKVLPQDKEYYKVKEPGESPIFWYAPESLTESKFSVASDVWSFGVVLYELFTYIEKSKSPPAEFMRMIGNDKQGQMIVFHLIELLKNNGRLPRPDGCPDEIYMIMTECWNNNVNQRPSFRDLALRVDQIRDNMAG
T2 sequence (Q9UM73 19-1620): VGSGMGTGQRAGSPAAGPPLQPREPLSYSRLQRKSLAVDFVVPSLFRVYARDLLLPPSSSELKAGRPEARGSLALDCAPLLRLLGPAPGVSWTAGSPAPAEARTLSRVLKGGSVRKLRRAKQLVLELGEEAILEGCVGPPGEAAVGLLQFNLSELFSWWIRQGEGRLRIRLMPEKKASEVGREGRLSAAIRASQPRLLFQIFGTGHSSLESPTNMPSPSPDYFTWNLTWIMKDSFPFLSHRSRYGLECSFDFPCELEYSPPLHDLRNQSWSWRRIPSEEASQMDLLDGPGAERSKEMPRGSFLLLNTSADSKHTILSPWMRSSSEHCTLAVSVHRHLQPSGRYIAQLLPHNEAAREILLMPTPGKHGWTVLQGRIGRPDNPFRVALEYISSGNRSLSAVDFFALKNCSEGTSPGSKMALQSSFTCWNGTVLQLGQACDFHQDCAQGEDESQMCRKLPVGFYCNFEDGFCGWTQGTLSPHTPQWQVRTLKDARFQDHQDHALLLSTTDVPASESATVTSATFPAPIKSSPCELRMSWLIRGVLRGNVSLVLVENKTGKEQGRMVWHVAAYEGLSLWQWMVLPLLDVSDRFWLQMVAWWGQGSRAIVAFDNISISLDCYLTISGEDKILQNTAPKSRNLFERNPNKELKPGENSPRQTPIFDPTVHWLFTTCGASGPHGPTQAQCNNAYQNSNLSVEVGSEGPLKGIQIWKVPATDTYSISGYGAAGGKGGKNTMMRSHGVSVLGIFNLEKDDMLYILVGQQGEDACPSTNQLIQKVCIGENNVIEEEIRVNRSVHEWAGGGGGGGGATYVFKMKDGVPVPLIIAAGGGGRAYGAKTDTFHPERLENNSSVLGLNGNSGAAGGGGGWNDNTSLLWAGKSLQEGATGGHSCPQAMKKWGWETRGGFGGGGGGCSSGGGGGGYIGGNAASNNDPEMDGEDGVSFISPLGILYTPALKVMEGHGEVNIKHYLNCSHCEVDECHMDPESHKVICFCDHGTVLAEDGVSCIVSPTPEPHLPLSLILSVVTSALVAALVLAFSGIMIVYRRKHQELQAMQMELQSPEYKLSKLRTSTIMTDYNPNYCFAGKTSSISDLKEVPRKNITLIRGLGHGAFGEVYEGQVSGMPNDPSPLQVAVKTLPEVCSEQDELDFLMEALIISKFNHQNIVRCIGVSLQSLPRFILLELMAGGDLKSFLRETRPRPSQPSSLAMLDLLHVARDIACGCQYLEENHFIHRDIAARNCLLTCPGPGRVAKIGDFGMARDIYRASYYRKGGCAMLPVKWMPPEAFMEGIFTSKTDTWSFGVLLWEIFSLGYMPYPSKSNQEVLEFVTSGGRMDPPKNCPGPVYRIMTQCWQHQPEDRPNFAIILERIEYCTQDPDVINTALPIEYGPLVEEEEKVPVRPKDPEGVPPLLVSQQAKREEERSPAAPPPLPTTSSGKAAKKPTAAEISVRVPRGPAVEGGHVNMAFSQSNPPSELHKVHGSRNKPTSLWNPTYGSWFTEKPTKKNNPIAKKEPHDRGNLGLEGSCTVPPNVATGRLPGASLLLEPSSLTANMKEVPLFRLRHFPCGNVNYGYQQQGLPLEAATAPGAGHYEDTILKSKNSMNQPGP
Chain of TYK2 (P29597 whole entry): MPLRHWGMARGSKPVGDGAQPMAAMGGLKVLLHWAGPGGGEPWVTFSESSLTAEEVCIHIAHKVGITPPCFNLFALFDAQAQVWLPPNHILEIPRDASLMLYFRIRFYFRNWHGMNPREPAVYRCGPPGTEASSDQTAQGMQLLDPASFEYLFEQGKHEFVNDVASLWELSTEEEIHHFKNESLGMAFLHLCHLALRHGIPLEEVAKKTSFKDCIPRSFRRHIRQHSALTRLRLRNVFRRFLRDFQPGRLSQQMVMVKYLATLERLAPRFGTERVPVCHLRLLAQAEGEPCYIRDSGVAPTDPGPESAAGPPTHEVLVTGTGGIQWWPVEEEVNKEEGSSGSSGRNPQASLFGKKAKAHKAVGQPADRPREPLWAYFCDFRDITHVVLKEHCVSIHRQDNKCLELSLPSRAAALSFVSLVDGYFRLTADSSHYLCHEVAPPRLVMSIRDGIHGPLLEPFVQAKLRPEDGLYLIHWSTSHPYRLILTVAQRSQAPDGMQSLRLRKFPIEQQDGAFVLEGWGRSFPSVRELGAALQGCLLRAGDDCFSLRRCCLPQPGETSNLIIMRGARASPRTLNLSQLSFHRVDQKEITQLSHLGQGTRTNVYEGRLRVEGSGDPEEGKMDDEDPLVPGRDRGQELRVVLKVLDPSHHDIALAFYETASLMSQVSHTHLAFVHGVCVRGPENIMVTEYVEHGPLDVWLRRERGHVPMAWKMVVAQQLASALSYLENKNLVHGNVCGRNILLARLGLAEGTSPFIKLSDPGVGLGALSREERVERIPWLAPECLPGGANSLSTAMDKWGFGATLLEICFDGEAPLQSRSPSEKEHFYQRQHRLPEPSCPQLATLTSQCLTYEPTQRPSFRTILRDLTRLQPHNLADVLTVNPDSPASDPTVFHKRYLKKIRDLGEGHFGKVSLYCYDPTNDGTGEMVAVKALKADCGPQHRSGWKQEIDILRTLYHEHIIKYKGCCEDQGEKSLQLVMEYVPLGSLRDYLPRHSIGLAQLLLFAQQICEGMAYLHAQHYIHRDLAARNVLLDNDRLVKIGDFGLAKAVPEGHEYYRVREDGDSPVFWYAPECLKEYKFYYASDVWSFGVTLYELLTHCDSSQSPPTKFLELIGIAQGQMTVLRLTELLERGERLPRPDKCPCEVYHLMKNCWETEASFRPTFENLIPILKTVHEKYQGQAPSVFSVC
T3 sequence (P52333 781-1124): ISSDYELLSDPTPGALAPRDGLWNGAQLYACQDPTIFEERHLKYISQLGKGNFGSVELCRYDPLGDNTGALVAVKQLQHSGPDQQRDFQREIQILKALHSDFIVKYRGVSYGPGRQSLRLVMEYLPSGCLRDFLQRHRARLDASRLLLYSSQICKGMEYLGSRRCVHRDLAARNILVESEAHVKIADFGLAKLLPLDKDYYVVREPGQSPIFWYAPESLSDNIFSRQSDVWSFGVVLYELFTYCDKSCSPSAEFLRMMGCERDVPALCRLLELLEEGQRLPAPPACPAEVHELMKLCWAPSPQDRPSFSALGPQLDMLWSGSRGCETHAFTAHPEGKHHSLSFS
T1 sequence (P23458 849-1154): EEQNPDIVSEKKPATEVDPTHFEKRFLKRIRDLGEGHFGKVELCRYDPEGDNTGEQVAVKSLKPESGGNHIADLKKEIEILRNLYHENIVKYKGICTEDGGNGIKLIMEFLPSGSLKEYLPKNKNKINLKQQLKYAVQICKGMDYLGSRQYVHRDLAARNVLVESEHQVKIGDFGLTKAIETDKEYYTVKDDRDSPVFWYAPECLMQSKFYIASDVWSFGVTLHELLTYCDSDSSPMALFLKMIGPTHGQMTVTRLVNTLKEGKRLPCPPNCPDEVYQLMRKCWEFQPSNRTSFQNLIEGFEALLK

As for `O=C(Nc1ccc2cc1CCc1cccc(c1)Nc1ncc(Cl)c(n1)N2)N[C@H]1CCN(C(=O)c2ccno2)C1` [Example B230, N-[6-Chloro-2,4,8,22-tetraazatetracyclo[14.3.1.1(3,7).1(9,13)]docosa-1(20),3(22),4,6,9(21),10,12,16,18-nonaen-12-yl]-N′-[(3S)-1-(isoxazol-5-ylcarbonyl)pyrrolidin-3-yl]urea trifluoroacetate], the IC50 came to 2 nM in test [1] (Table B1), 50 nM in test [3] (Table B1), 7 nM in test [4] (Table B1) and 15 nM against TYK2 (Table B1). In addition, the “ALK % of inhibition at a concentration of 500 nM or 1 mM” value (“ALK % of inhibition” for short) in test [2] (setting [5]) is reported as 11%.

As to `N#Cc1ccc(NC(=O)Nc2ccc3cc2CCc2cccc(c2)Nc2ncc(Cl)c(n2)N3)cc1` [Example B96, N-[6-Chloro-2,4,8,22-tetraazatetracyclo[14.3.1.1(3,7).1(9,13)]docosa-1(20), 3(22),4,6,9(21),10,12,16,18-nonaen-12-yl]-N′-(4-cyanophenyl)urea trifluoroacetate], the IC50 in test [1] (Table B1) was 1 nM; in test [2] (setting [6]), > 1000 nM; in test [3] (Table B1), 45 nM; in test [4] (Table B1), 6 nM; against TYK2 (Table B1) it was 12 nM.

`O=C(Nc1ccc(Cl)cc1)c1cc2cc(c1)Nc1nc(ncc1Cl)Nc1cccc(c1)CC2` [Example B15, 6-Chloro-N-(4-chlorophenyl)-2,4,8,22-tetraazatetracyclo[14.3.1.1(3,7).1(9,13)]docosa-1(20),3(22),4,6,9(21),10,12,16,18-nonaene-11-carboxamide trifluoroacetate]: the IC50 in test [1] (Table B1) was 160 nM; in test [2] (setting [6]), > 1000 nM; in test [3] (Table B1), 365 nM; in test [4] (Table B1), 111 nM; on TYK2 (Table B1), > 1000 nM.

On to `Clc1cnc2nc1Nc1ccc(CN3CCNCC3)c(c1)CCc1cccc(c1)N2` [Example B224, 6-Chloro-12-(piperazin-1-ylmethyl)-2,4,8,22-tetraazatetracyclo[14.3.1.1(3,7).1(9,13)]docosa-1(20),3(22),4,6,9(21),10,12,16,18-nonaene tris(trifluoroacetate)], for which the concentration for half-maximal inhibition (IC50) was determined as 19 nM in test [1] (Table B1), 41 nM in test [3] (Table B1), 8.9 nM in test [4] (Table B1) and 41 nM against TYK2 (Table B1). Further, in test [2] (setting [5]), the “ALK % of inhibition” value was 28%.

`Cc1cc(C(=O)Nc2cc3cc(c2)Nc2nc(ncc2Cl)Nc2cccc(c2)CC3)no1` [Example B205, N-[6-Chloro-2,4,8,22-tetraazatetracyclo[14.3.1.1(3,7).1(9,13)]docosa-1(20),3(22),4,6,9(21),10,12,16,18-nonaen-11-yl]-5-methylisoxazole-3-carboxamide trifluoroacetate]: the 50% inhibitory concentration (IC50) in test [1] (Table B1) is 188 nM; in test [2] (setting [6]) it was > 10000 nM; in test [3] (Table B1), 509 nM; in test [4] (Table B1), 146 nM; against TYK2 (Table B1) it was > 1000 nM.

As to `N#Cc1c(F)cccc1N1CCC(CC(=O)Nc2ccc3cc2CCc2cncc(c2)Nc2ncc(Cl)c(n2)N3)CC1` [Example A234, N-[6-Chloro-2,4,8,18,22-pentaazatetracyclo[14.3.1.1(3,7).1(9,13)]docosa-1(20),3(22),4,6,9(21),10,12,16,18-nonaen-12-yl]-2-[1-(2-cyano-3-fluorophenyl)piperidin-4-yl]acetamide tris(trifluoroacetate)], the IC50 in test [1] (setting [7]) was 1.5 nM; in test [3] (setting [9]) it was > 400 nM; in test [4] (setting [10]), 80 nM; against TYK2 it was 72 nM. In addition, the “ALK % of inhibition” value in test [2] (setting [8]) was determined as 13%.

Consider `O=C(Nc1ccc2cc1CCc1cccc(c1)Nc1ncc(Cl)c(n1)N2)c1ccc2c(c1)OCO2` [Example B71, N-[6-Chloro-2,4,8,22-tetraazatetracyclo[14.3.1.1(3,7).1(9,13)]docosa-1(20), 3(22),4,6,9(21),10,12,16,18-nonaen-12-yl]-1,3-benzodioxole-5-carboxamide trifluoroacetate], for which the IC50 was 1.9 nM in test [1] (Table B1), 24 nM in test [3] (Table B1), 4.9 nM in test [4] (Table B1) and 9.6 nM against TYK2 (Table B1). The “ALK % of inhibition” value in test [2] (setting [5]) amounted to 43%.

As to `Cc1cnc2nc1Nc1cccc(c1)CCc1cccc(c1)N2` [Example B2, 6-Methyl-2,4,8,22-tetraazatetracyclo[14.3.1.1(3,7).1(9,13)]docosa-1(20),3(22),4,6,9(21),10,12,16,18-nonaene trifluoroacetate], the IC50 is 11 nM in test [1] (Table B1); > 1000 nM in test [2] (setting [6]); 277 nM in test [3] (Table B1); 8.4 nM in test [4] (Table B1); 19 nM against TYK2 (Table B1).

Take `c1cc2cc(c1)Nc1ccnc(n1)Nc1cccc(c1)CC2` [Example A3, 2,4,8,22-Tetraazatetracyclo[14.3.1.1(3,7).1(9,13)]docosa-1(20),3(22),4,6,9(21),10,12,16,18-nonaene trifluoroacetate]: the half-inhibitory concentration (IC50) in test [1] (setting [7]) turned out to be 50 nM; in test [2] (90 μM ATP), 2040 nM; in test [3] (setting [9]) it was 45 nM; in test [4] (setting [10]), 15 nM; against TYK2, 55 nM.

For the compound `NC(=O)N1CCN(c2cc(-c3cc4cc(c3)Nc3ncc(Cl)c(n3)Nc3cccc(c3)OCC4)ccn2)CC1` [Example D39, 4-{4-[6-Chloro-14-oxa-2,4,8,23-tetraazatetracyclo[15.3.1.1(3,7).1(9,13)]tricosa-1(21),3(23),4,6,9(22),10,12,17,19-nonaen-19-yl]pyridin-2-yl}piperazine-1-carboxamide bis(trifluoroacetate)], the IC50 was found to be 0.5 nM in test [1] (Table D1); 91 nM in test [2] (Table D1, 90 μM ATP); 6.4 nM in test [3] (Table D1); 0.5 nM in test [4] (Table D1); 1.8 nM at TYK2 (Table D1).

`CN1c2cccc(c2)OCCc2cccc(c2)Nc2ncc(Cl)c1n2` [Example D9, 6-Chloro-8-methyl-14-oxa-2,4,8,23-tetraazatetracyclo[15.3.1.1(3,7).1(9,13)]tricosa-1(21),3(23),4,6,9(22),10,12,17,19-nonaene trifluoroacetate]: the 50% inhibitory concentration (IC50) was 183 nM in test [1] (Table D1); > 952 nM in test [2] (Table D1, 90 μM ATP); 489 nM in test [3] (Table D1); 47 nM in test [4] (Table D1); 137 nM against TYK2 (Table D1).

Turning to `CCNC(=O)N1CCC(C(=O)Nc2ccc3cc2CCc2cccc(c2)Nc2ncc(Cl)c(n2)N3)CC1` [Example A59, N(4)-[6-Chloro-2,4,8,22-tetraazatetracyclo[14.3.1.1(3,7).1(9,13)]docosa-1(20),3(22),4,6,9(21),10,12,16,18-nonaen-12-yl]-N(1)-ethylpiperidine-1,4-dicarboxamide trifluoroacetate], the IC50 worked out at 26 nM in test [1] (setting [7]), 19 nM in test [3] (setting [9]), 6.9 nM in test [4] (setting [10]) and 15 nM against TYK2. In addition, the “ALK % of inhibition” value in test [2] (setting [8]) came out at 39%.

For the compound `Cc1cccc(NC(=O)N2CCC(CC(=O)Nc3ccc4cc3CCc3cncc(c3)Nc3ncc(Cl)c(n3)N4)CC2)c1` [Example A150, 4-(2-{[6-Chloro-2,4,8,18,22-pentaazatetracyclo[14.3.1.1(3,7).1(9,13)]docosa-1(20),3(22),4,6,9(21),10,12,16,18-nonaen-12-yl]amino}-2-oxoethyl)-N-(3-methylphenyl)piperidine-1-carboxamide bis(trifluoroacetate)], the half-inhibitory concentration (IC50) in test [1] (setting [7]) is 0.3 nM; in test [3] (setting [9]), > 100 nM; in test [4] (setting [10]), 1.1 nM; on TYK2, 5.1 nM. Also, the “ALK % of inhibition” value in test [2] (setting [8]) was 48%.

Turning to `Clc1cnc2nc1Nc1cccc(c1)OCCc1cc(cc(-c3ccc(N4CCNCC4)nc3)c1)N2` [Example D33, 6-Chloro-19-(6-piperazin-1-ylpyridin-3-yl)-14-oxa-2,4,8,23-tetraazatetracyclo[15.3.1.1(3,7).1(9,13)]tricosa-1(21),3(23),4,6,9(22),10,12,17,19-nonaene tris(trifluoroacetate)], the IC50 in test [1] (Table D1) is 1.8 nM; in test [2] (Table D1, 90 μM ATP), 108 nM; in test [3] (Table D1), 12 nM; in test [4] (Table D1), 0.7 nM; at TYK2 (Table D1), 4 nM.

`O=C1Nc2cccc(c2)Nc2nc(ncc2Cl)Nc2cccc1c2` [Example C2, 6-Chloro-2,4,8,14,22-pentaazatetracyclo[14.3.1.1(3,7).1(9,13)]docosa-1(20),3(22),4,6,9(21),10,12,16,18-nonaen-15-one hydrochloride]: the IC50 (in test [1]; in test [2]; in test [3]; in test [4]; against TYK2) was > 1000 nM in each case.

On to `OCc1cc2cc(c1)Nc1nc(ncc1Cl)Nc1cccc(c1)CC2` [Example B24, [6-Chloro-2,4,8,22-tetraazatetracyclo[14.3.1.1(3,7).1(9,13)]docosa-1(20),3(22),4,6,9(21),10,12,16,18-nonaen-11-yl]methanol trifluoroacetate], for which the IC50 in test [1] (Table B1) was found to be 14 nM; in test [2] (setting [6]), 781 nM; in test [3] (Table B1), 5.8 nM; in test [4] (Table B1), 2.3 nM; at TYK2 (Table B1), 18 nM.

(Values after patent publication US8871753B2, “Macrocyclic compounds and their use as kinase inhibitors” (Incyte Corporation, priority 2008, dated 2014).)
